In the assay the target is T1, AXL (fusion protein of amino acids 464-885 of the intracellular domain of human AXL with glutathione transferase) (Homo sapiens, UniProt P30530).
T1 sequence (P30530 464-885 isoform P30530-2): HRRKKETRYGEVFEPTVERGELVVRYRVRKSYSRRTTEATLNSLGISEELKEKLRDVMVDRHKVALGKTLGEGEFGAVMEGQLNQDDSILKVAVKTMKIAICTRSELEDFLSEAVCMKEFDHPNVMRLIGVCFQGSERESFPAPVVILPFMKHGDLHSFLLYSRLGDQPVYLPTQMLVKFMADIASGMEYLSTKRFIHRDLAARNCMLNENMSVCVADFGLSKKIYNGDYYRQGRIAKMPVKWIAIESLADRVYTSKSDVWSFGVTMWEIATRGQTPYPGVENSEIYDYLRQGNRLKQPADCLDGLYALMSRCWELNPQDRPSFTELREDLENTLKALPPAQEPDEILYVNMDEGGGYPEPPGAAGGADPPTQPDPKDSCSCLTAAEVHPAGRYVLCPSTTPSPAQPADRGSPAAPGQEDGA
Description: Cell-Free Axl Kinase Inhibitory Activity.
In turn, `Cn1cc(-c2cnc(N)c(-c3ccc(NC(=O)c4cn(Cc5ccccc5)cc(-c5ccc(F)cc5)c4=O)cc3)c2)cn1` [Example 51, N-{4-[2-Amino-5-(1-methyl-1H-pyrazol-4-yl)pyridin-3-yl]phenyl}-1-benzyl-5-(4-fluorophenyl)-4-oxo-1,4-dihydropyridine-3-carboxamide] registered an IC50 of 0.1 to 1 nM.
The figure for `CCn1cc(C(=O)Nc2ccc(-c3cc(-c4cnn(C)c4)cnc3N)cc2)c(=O)c(-c2ccccc2)c1` [Example 52, N-{4-[2-Amino-5-(1-methyl-1H-pyrazol-4-yl)pyridin-3-yl]phenyl}-1-ethyl-4-oxo-5-phenyl-1,4-dihydropyridine-3-carboxamide] is 1 to 10 nM; for `Cn1cc(-c2cnc(N)c(-c3ccc(NC(=O)c4cn(CCF)cc(-c5ccccc5)c4=O)cc3)c2)cn1` [Example 53, N-{4-[2-Amino-5-(1-methyl-1H-pyrazol-4-yl)pyridin-3-yl]phenyl}-1-(2-fluoroethyl)-4-oxo-5-phenyl-1,4-dihydropyridine-3-carboxamide] it is 1 to 10 nM; for `Cn1cc(-c2cnc(N)c(-c3ccc(NC(=O)c4cn(CC(F)(F)F)cc(-c5ccccc5)c4=O)cc3)c2)cn1` [Example 54, N-{4-[2-Amino-5-(1-methyl-1H-pyrazol-4-yl)pyridin-3-yl]phenyl}-4-oxo-5-phenyl-1-(2,2,2-trifluoroethyl)-1,4-dihydropyridine-3-carboxamide] it is 1 to 10 nM.
For the compound `Cn1cc(-c2cnc(N)c(-c3ccc(NC(=O)c4cn(CCF)cc(-c5ccccc5)c4=O)cc3F)c2)cn1` [Example 55, N-{4-[2-Amino-5-(1-methyl-1H-pyrazol-4-yl)pyridin-3-yl]-3-fluorophenyl}-1-(2-fluoroethyl)-4-oxo-5-phenyl-1,4-dihydropyridine-3-carboxamide], the IC50 is 1 to 10 nM.
The figure for `Cn1cc(-c2cnc(N)c(-c3ccc(NC(=O)c4cn(Cc5ccc(F)cc5)ccc4=O)cc3)c2)cn1` [Example 56, N-{4-[2-Amino-5-(1-methyl-1H-pyrazol-4-yl)pyridin-3-yl]phenyl}-1-(4-fluorobenzyl)-4-oxo-1,4-dihydropyridine-3-carboxamide] is 1 to 10 nM; for `Cc1cc(=O)c(C(=O)Nc2ccc(-c3cc(-c4cnn(C)c4)cnc3N)cc2)cn1Cc1ccc(F)cc1` [Example 57, N-{4-[2-Amino-5-(1-methyl-1H-pyrazol-4-yl)pyridin-3-yl]phenyl}-1-(4-fluorobenzyl)-6-methyl-4-oxo-1,4-dihydropyridine-3-carboxamide] it is 1 to 10 nM.
The figure for `Cc1cn(Cc2ccc(F)cc2)cc(C(=O)Nc2ccc(-c3cc(-c4cnn(C)c4)cnc3N)cc2)c1=O` [Example 58, N-{4-[2-Amino-5-(1-methyl-1H-pyrazol-4-yl)pyridin-3-yl]phenyl}-1-(4-fluorobenzyl)-5-methyl-4-oxo-1,4-dihydropyridine-3-carboxamide] is 1 to 10 nM.
The value for `COc1cn(Cc2ccc(F)cc2)cc(C(=O)Nc2ccc(-c3cc(-c4cnn(C)c4)cnc3N)cc2)c1=O` [Example 59, N-{4-[2-Amino-5-(1-methyl-1H-pyrazol-4-yl)pyridin-3-yl]phenyl}-1-(4-fluorobenzyl)-5-methoxy-4-oxo-1,4-dihydropyridine-3-carboxamide] was 10 to 20 nM.
In the case of `CN(C)C(=O)c1cn(Cc2ccc(F)cc2)cc(C(=O)Nc2ccc(-c3cc(-c4cnn(C)c4)cnc3N)cc2)c1=O` [Example 60, N′-{4-[2-Amino-5-(1-methyl-1H-pyrazol-4-yl)pyridin-3-yl]phenyl}-1-(4-fluorobenzyl)-N,N-dimethyl-4-oxo-1,4-dihydropyridine-3,5-dicarboxamide], the IC50 lay within 1 to 10 nM.
On to `COc1ccc(-n2cc(-c3ccc(F)cc3)c(=O)c(C(=O)Nc3ccc(-c4cc(-c5cnn(C)c5)cnc4N)cc3)n2)cc1` [Example 61, N-{4-[2-Amino-5-(1-methyl-1H-pyrazol-4-yl)pyridin-3-yl]phenyl}-5-(4-fluorophenyl)-1-(4-methoxyphenyl)-4-oxo-1,4-dihydropyridazine-3-carboxamide], for which the IC50 fell in the range of 1 to 10 nM.
The figure for `Nc1ncc(-c2cnn(C3CCNCC3)c2)cc1-c1ccc(NC(=O)c2cn(CCF)cc(-c3ccc(F)cc3)c2=O)cc1` [Example 62, N-{4-[2-Amino-5-(1-piperidin-4-yl-1H-pyrazol-4-yl)pyridin-3-yl]phenyl}-1-(2-fluoroethyl)-5-(4-fluorophenyl)-4-oxo-1,4-dihydropyridine-3-carboxamide] is 0.1 to 1 nM.
The figure for `CCn1cc(C(=O)Nc2ccc(-c3cc(-c4cnn(C[C@H]5COCCO5)c4)cnc3N)cc2)c(=O)c(-c2ccc(F)cc2)c1` [Example 64, N-[4-(2-Amino-5-{1-[(2S)-1,4-dioxan-2-ylmethyl]-1H-pyrazol-4-yl}pyridin-3-yl)phenyl]-1-ethyl-5-(4-fluorophenyl)-4-oxo-1,4-dihydropyridine-3-carboxamide] is 0.1 to 1 nM; for `Nc1ncc(-c2cnn(C[C@H]3COCCO3)c2)cc1-c1ccc(NC(=O)c2cn(CCF)cc(-c3ccc(F)cc3)c2=O)cc1` [Example 65, N-[4-(2-Amino-5-{1-[(2S)-1,4-dioxan-2-ylmethyl]-1H-pyrazol-4-yl}pyridin-3-yl)phenyl]-1-(2-fluoroethyl)-5-(4-fluorophenyl)-4-oxo-1,4-dihydropyridine-3-carboxamide] it is 1 to 10 nM; for `COCCn1cc(C(=O)Nc2ccc(-c3cc(-c4cnn(C[C@H]5COCCO5)c4)cnc3N)cc2)c(=O)c(-c2ccc(F)cc2)c1` [Example 66, N-[4-(2-Amino-5-{1-[(2S)-1,4-dioxan-2-ylmethyl]-1H-pyrazol-4-yl}pyridin-3-yl)phenyl]-5-(4-fluorophenyl)-1-(2-methoxyethyl)-4-oxo-1,4-dihydropyridine-3-carboxamide] it is 1 to 10 nM.
The figure for `CCOCCn1cc(C(=O)Nc2ccc(-c3cc(-c4cnn(C[C@H]5COCCO5)c4)cnc3N)cc2)c(=O)c(-c2ccc(F)cc2)c1` [Example 67, N-[4-(2-Amino-5-{1-[(2S)-1,4-dioxan-2-ylmethyl]-1H-pyrazol-4-yl}pyridin-3-yl)phenyl]-1-(2-ethoxyethyl)-5-(4-fluorophenyl)-4-oxo-1,4-dihydropyridine-3-carboxamide] is 1 to 10 nM; for `CCN(CC)C(=O)c1cn(Cc2ccc(F)cc2)cc(C(=O)Nc2ccc(-c3cc(-c4cnn(C[C@H]5COCCO5)c4)cnc3N)cc2)c1=O` [Example 70, N′-[4-(2-Amino-5-{1-[(2S)-1,4-dioxan-2-ylmethyl]-1H-pyrazol-4-yl}pyridin-3-yl)phenyl]-N,N-diethyl-1-(4-fluorobenzyl)-4-oxo-1,4-dihydropyridine-3,5-dicarboxamide] it is 1 to 10 nM; for `Nc1ncc(-c2cnn(C[C@H]3COCCO3)c2)cc1-c1ccc(NC(=O)c2cn(Cc3ccc(F)cc3)cc(C(=O)N3CCCC3)c2=O)cc1` [Example 71, N-[4-(2-Amino-5-{1-[(2S)-1,4-dioxan-2-ylmethyl]-1H-pyrazol-4-yl}pyridin-3-yl)phenyl]-1-(4-fluorobenzyl)-4-oxo-5-(pyrrolidin-1-ylcarbonyl)-1,4-dihydropyridine-3-carboxamide] it is 0.1 to 1 nM.
`Nc1ncc(-c2cnn(C[C@H]3COCCO3)c2)cc1-c1ccc(NC(=O)c2cn(Cc3ccc(F)cc3)cc(C(=O)N3CCC(F)(F)C3)c2=O)cc1` [Example 73, N-[4-(2-Amino-5-{1-[(2S)-1,4-dioxan-2-ylmethyl]-1H-pyrazol-4-yl}pyridin-3-yl)phenyl]-5-[(3,3-difluoropyrrolidin-1-yl)carbonyl]-1-(4-fluorobenzyl)-4-oxo-1,4-dihydropyridine-3-carboxamide]: the concentration for half-maximal inhibition (IC50) was 10 to 20 nM.
The figure for `Cc1nnc(-c2cn(Cc3ccc(F)cc3)cc(C(=O)Nc3ccc(-c4cc(-c5cnn(C[C@H]6COCCO6)c5)cnc4N)cc3)c2=O)o1` [Example 74, N-[4-(2-Amino-5-{1-[(2S)-1,4-dioxan-2-ylmethyl]-1H-pyrazol-4-yl}pyridin-3-yl)phenyl]-1-(4-fluorobenzyl)-5-(5-methyl-1,3,4-oxadiazol-2-yl)-4-oxo-1,4-dihydropyridine-3-carboxamide] is 0.1 to 1 nM; for `Nc1ncc(-c2cnn(C[C@H]3COCCO3)c2)cc1-c1ccc(NC(=O)c2cn(CCF)cc(-c3ccccc3)c2=O)cc1F` [Example 75, N-[4-(2-Amino-5-{1-[(2S)-1,4-dioxan-2-ylmethyl]-1H-pyrazol-4-yl}pyridin-3-yl)-3-fluorophenyl]-1-(2-fluoroethyl)-4-oxo-5-phenyl-1,4-dihydropyridine-3-carboxamide] it is 1 to 10 nM; for `Nc1ncc(-c2cnn(C[C@H]3COCCO3)c2)cc1-c1ccc(NC(=O)c2cn(Cc3ccc(F)cc3)cc(C(=O)N3CCCC3)c2=O)cc1F` [Example 76, N-[4-(2-Amino-5-{1-[(2S)-1,4-dioxan-2-ylmethyl]-1H-pyrazol-4-yl}pyridin-3-yl)-3-fluorophenyl]-1-(4-fluorobenzyl)-4-oxo-5-(pyrrolidin-1-ylcarbonyl)-1,4-dihydropyridine-3-carboxamide] it is 0.1 to 1 nM.
The compound `Cc1cc(-c2cnc(N)c(-c3ccc(NC(=O)c4cn(CC(F)(F)F)cc(-c5ccc(F)cc5)c4=O)cc3)c2)ccn1` [Example 77, N-[4-(6-Amino-2′-methyl-3,4′-bipyridin-5-yl)phenyl]-5-(4-fluorophenyl)-4-oxo-1-(2,2,2-trifluoroethyl)-1,4-dihydropyridine-3-carboxamide] showed a half-maximal inhibitory concentration (IC50) of 0.1 to 1 nM.
The figure for `Cc1cc(-c2cnc(N)c(-c3ccc(NC(=O)c4cn(CCF)cc(-c5ccc(F)cc5)c4=O)cc3)c2)ccn1` [Example 78, N-[4-(6-Amino-2′-methyl-3,4′-bipyridin-5-yl)phenyl]-1-(2-fluoroethyl)-5-(4-fluorophenyl)-4-oxo-1,4-dihydropyridine-3-carboxamide] is 1 to 10 nM.

For orientation: IC50 means the midpoint of a concentration-inhibition curve.

The values above are taken from patent US8933103B2, “Pyridone derivatives” (Daiichi Sankyo Company, Limited, priority 2012, dated 2015).
